Measured values as given in patent US12447156B2, “Treating progressive familial intrahepatic cholestasis (PFIC) with IBAT inhibitors” (ALBIREO AB, priority 2020, dated 2025).
≈ marks a conversion by molar mass, not a printed value.

How the values were obtained:
[1] = Solubility of odevixibat in water; type: physicochemical; details: pH 7, 37° C.
Description: It is desirable that the use of organic solvents in the preparation of the formulation is avoided. In some embodiments, water is used as the solvent for the preparation of the formulation. […] Because of this low solubility in water, aqueous suspensions of odevixibat can contain larger agglomerates of odevixibat, which may lead to an uneven distribution of the active pharmaceutical ingredient on the cores, i.e. the cores may contain different amounts of odevixibat, which in turn impacts dose uniformity. Accordingly, in some embodiments, the aqueous suspension of odevixibat is homogeneous. In some embodiments, a homogeneous aqueous suspension of odevixibat is sprayed onto the cores.

[2] = tested on: patients with PFIC with prior PEBD surgery; experiment: PEDFIC 1/2 post hoc subgroup: patients with prior partial external biliary diversion (PEBD); type: in vivo, human; design: key: Y: sBAs ≤70 μmol/L or reduced ≥70% at last assessment; N, no
Protocol: One surgical treatment option for patients with PFIC is partial external biliary diversion (PEBD), which can be used to reduce bile acid levels in patients with medically refractory pruritus. However, PEBD is not successful in all patients. […] This post hoc subgroup analysis evaluated the safety and efficacy of odevixibat in patients enrolled in the PEDFIC studies who had PEBD surgery prior to study entry.
In the double-blind PEDFIC 1 study, children with PFIC1 or PFIC2 were randomized to placebo or 40 or 120 μg/kg/day odevixibat for 24 weeks. In PEDFIC 2, an ongoing, open-label extension study, patients from PEDFIC 1 or newly enrolled patients with any PFIC subtype receive odevixibat 120 μg/kg/day. In both PEDFIC 1 and PEDFIC 2, eligible patients had elevated sBAs and significant pruritus at screening. Changes over time in sBA levels and observer-reported pruritus (range: 0-4; higher scores indicate worse symptoms), sleep parameters, and quality of life (QoL; assessed with the Pediatric Quality of Life Inventory [PedsQL]) were evaluated in the subgroup of patients from PEDFIC 1 and/or PEDFIC 2 with a medical history of PEBD surgery performed prior to study enrollment.

CCCCC1(CCCC)CN(c2ccccc2)c2cc(SC)c(OCC(=O)N[C@@H](C(=O)N[C@@H](CC)C(=O)O)c3ccc(O)cc3)cc2S(=O)(=O)N1 [Odevixibat, 1,1-dioxo-3,3-dibutyl-5-phenyl-7-methylthio-8-(N-{(R)-α-[N-((S)-1-carboxypropyl)carbamoyl]-4-hydroxybenzyl}carbamoylmethoxy)-2,3,4,5-tetrahydro-1,2,5-benzothiadiazepine]
solubility [1]: ~30 µg/mL (≈ 40.5 µM)
sBA Responder? ([2]; Patient 1 (prior PEBD, PFIC2; PEDFIC 1 placebo, PEDFIC 2 120 μg/kg/d; 42 weeks exposure)): N
sBA Responder? ([2]; Patient 2 (prior PEBD, PFIC1; PEDFIC 1 placebo, PEDFIC 2 120 μg/kg/d; 35 weeks exposure)): N
sBA Responder? ([2]; Patient 3 (prior PEBD, PFIC1; PEDFIC 1 40 μg/kg/d, PEDFIC 2 120 μg/kg/d; 44 weeks exposure)): N
sBA Responder? ([2]; Patient 4 (prior PEBD, PFIC1; PEDFIC 1 40 μg/kg/d, PEDFIC 2 120 μg/kg/d; 55 weeks exposure)): N
sBA Responder? ([2]; Patient 5 (prior PEBD, PFIC2; 120 μg/kg/d in PEDFIC 1 and 2; 53 weeks exposure)): N
sBA Responder? ([2]; Patient 6 (prior PEBD, PFIC2; 120 μg/kg/d in PEDFIC 1 and 2; 44 weeks exposure)): N
sBA Responder? ([2]; Patient 7 (prior PEBD, PFIC2; 120 μg/kg/d in PEDFIC 1 and 2; 54 weeks exposure, discontinued)): N
sBA Responder? ([2]; Patient 8 (prior PEBD, PFIC1; 120 μg/kg/d in PEDFIC 1 and 2; 47 weeks exposure)): N
sBA Responder? ([2]; Patient 9 (prior PEBD, PFIC1; PEDFIC 2 only, 120 μg/kg/d; 25 weeks exposure)): N
